Measurements reported in ChEMBL document CHEMBL2176881, “Development of N-[4-[6-(isopropylamino)pyrimidin-4-yl]-1,3-thiazol-2-yl]-N-methyl-4-[11C]methylbenzamide for positron emission tomography imaging of metabotropic glutamate 1 receptor in monkey brain” (J Med Chem, 2012).

Experiments:
[1] = Drug uptake in monkey pons at 185 to 220 MBq, iv after 10 mins by PET analysis; format: ADME, organism-based, Macaca mulatta; details: rhesus monkey, in vivo
[2] = test system: Hippocampus; assay: Drug uptake in monkey hippocampus at 185 to 220 MBq, iv after 10 mins by PET analysis; format: ADME, organism-based, Macaca mulatta; details: rhesus monkey, in vivo
[3] = test system: Spleen; assay: Biodistribution in ddY mouse spleen at 4.8 MBq/0.1 mL after 15 mins by gamma counting; format: ADME, organism-based; details: in vivo, 0.25 h
[4] = test system: Brain; assay: Biodistribution in ddY mouse brain at 4.8 MBq/0.1 mL after 30 mins by gamma counting; format: ADME, organism-based; details: in vivo, 0.5 h
[5] = test system: Pancreas; assay: Biodistribution in ddY mouse pancreas at 4.8 MBq/0.1 mL after 15 mins by gamma countingeas; format: ADME, organism-based; details: in vivo, 0.25 h
[6] = test system: Heart; assay: Biodistribution in ddY mouse heart at 4.8 MBq/0.1 mL after 1 min by gamma counting; format: ADME, organism-based; details: in vivo
[7] = test system: Hippocampus; assay: Drug uptake in monkey hippocampus assessed as distribution volume ratio at 185 to 220 MBq, iv after 10 to 90 mins by PET analysis; format: ADME, organism-based, Macaca mulatta; details: rhesus monkey, in vivo
[8] = Metabolic stability in monkey plasma assessed as unchanged drug level at 185 MBq/0.1 mL, iv after 5 mins; format: ADME, organism-based, Macaca mulatta; details: rhesus monkey, read-out: Stability
[9] = test system: Spleen; assay: Biodistribution in ddY mouse spleen at 4.8 MBq/0.1 mL after 60 mins by gamma counting; format: ADME, organism-based; details: in vivo, 1 h
[10] = test system: Muscle tissue; assay: Biodistribution in ddY mouse muscle at 4.8 MBq/0.1 mL after 1 min by gamma counting; format: ADME, organism-based; details: in vivo
[11] = test system: Kidney; assay: Biodistribution in ddY mouse kidney at 4.8 MBq/0.1 mL after 30 mins by gamma counting; format: ADME, organism-based; details: in vivo, 0.5 h
[12] = Drug uptake in monkey thalamus assessed as distribution volume ratio at 185 to 220 MBq, iv after 10 to 90 mins by PET analysis; format: ADME, organism-based, Macaca mulatta; details: rhesus monkey, in vivo
[13] = Metabolic stability in monkey plasma assessed as unchanged drug level at 185 MBq/0.1 mL, iv after 15 mins; format: ADME, organism-based, Macaca mulatta; details: rhesus monkey, read-out: Stability
[14] = test system: Brain; assay: Drug uptake in monkey brain at 185 to 220 MBq, iv after 10 to 60 mins by PET analysis in presence of unlabeled N-[4-[6-(Isopropylamino)pyrimidin-4-yl]-1,3-thiazol-2-yl]- N,4-dimethylbenzamide; format: ADME, organism-based, Macaca mulatta; details: rhesus monkey, in vivo
[15] = test system: Lung; assay: Biodistribution in ddY mouse lung at 4.8 MBq/0.1 mL after 30 mins by gamma counting; format: ADME, organism-based; details: in vivo, 0.5 h
[16] = Metabolic stability in Sprague-Dawley brain assessed as unchanged drug level at 37 MBq/0.1 mL, iv after 15 mins; format: ADME, organism-based; details: rat, read-out: Stability
[17] = species: Mus musculus; assay: Biodistribution in ddY mouse small intestine at 4.8 MBq/0.1 mL after 15 mins by gamma counting; format: ADME, organism-based; details: in vivo, 0.25 h
[18] = test system: Kidney; assay: Biodistribution in ddY mouse kidney at 4.8 MBq/0.1 mL after 15 mins by gamma counting; format: ADME, organism-based; details: in vivo, 0.25 h
[19] = test system: Pancreas; assay: Biodistribution in ddY mouse pancreas at 4.8 MBq/0.1 mL after 1 min by gamma countingeas; format: ADME, organism-based; details: in vivo
[20] = species: Mus musculus; assay: Biodistribution in ddY mouse large intestine at 4.8 MBq/0.1 mL after 60 mins by gamma counting; format: ADME, organism-based; details: in vivo, 1 h
[21] = Drug uptake in monkey pons assessed as distribution volume ratio at 185 to 220 MBq, iv after 10 to 90 mins by PET analysis; format: ADME, organism-based, Macaca mulatta; details: rhesus monkey, in vivo
[22] = test system: Blood; assay: Biodistribution in ddY mouse blood at 4.8 MBq/0.1 mL after 15 mins by gamma counting; format: ADME, organism-based; details: in vivo, 0.25 h
[23] = test system: Muscle tissue; assay: Biodistribution in ddY mouse muscle at 4.8 MBq/0.1 mL after 5 mins by gamma counting; format: ADME, organism-based; details: in vivo
[24] = test system: Blood; assay: Biodistribution in ddY mouse blood at 4.8 MBq/0.1 mL after 5 mins by gamma counting; format: ADME, organism-based; details: in vivo
[25] = Drug uptake in monkey cingulate cortex assessed as distribution volume ratio at 185 to 220 MBq, iv after 10 to 90 mins by PET analysis; format: ADME, organism-based, Macaca mulatta; details: rhesus monkey, in vivo
[26] = Drug uptake in monkey putamen assessed as distribution volume ratio at 185 to 220 MBq, iv after 10 to 90 mins by PET analysis; format: ADME, organism-based, Macaca mulatta; details: rhesus monkey, in vivo
[27] = Drug uptake in monkey thalamus at 185 to 220 MBq, iv after 20 mins by PET analysis; format: ADME, organism-based, Macaca mulatta; details: rhesus monkey, in vivo
[28] = test system: Brain; assay: Biodistribution in ddY mouse brain at 4.8 MBq/0.1 mL after 90 mins by gamma counting; format: ADME, organism-based; details: in vivo, 1.5 h
[29] = test system: Muscle tissue; assay: Biodistribution in ddY mouse muscle at 4.8 MBq/0.1 mL after 90 mins by gamma counting; format: ADME, organism-based; details: in vivo, 1.5 h
[30] = Metabolic stability in Sprague-Dawley plasma assessed as unchanged drug level at 37 MBq/0.1 mL, iv after 60 mins; format: ADME, organism-based; details: rat, read-out: Stability
[31] = test system: Heart; assay: Biodistribution in ddY mouse heart at 4.8 MBq/0.1 mL after 30 mins by gamma counting; format: ADME, organism-based; details: in vivo, 0.5 h
[32] = test system: Kidney; assay: Biodistribution in ddY mouse kidney at 4.8 MBq/0.1 mL after 60 mins by gamma counting; format: ADME, organism-based; details: in vivo, 1 h
[33] = test system: Heart; assay: Biodistribution in ddY mouse heart at 4.8 MBq/0.1 mL after 5 mins by gamma counting; format: ADME, organism-based; details: in vivo
[34] = test system: Muscle tissue; assay: Biodistribution in ddY mouse muscle at 4.8 MBq/0.1 mL after 30 mins by gamma counting; format: ADME, organism-based; details: in vivo, 0.5 h
[35] = species: Mus musculus; assay: Biodistribution in ddY mouse testis at 4.8 MBq/0.1 mL after 30 mins by gamma counting; format: ADME, organism-based; details: in vivo, 0.5 h
[36] = Drug uptake in monkey cerebellum at 185 to 220 MBq, iv after 20 mins by PET analysis; format: ADME, organism-based, Macaca mulatta; details: rhesus monkey, in vivo
[37] = test system: Lung; assay: Biodistribution in ddY mouse lung at 4.8 MBq/0.1 mL after 60 mins by gamma counting; format: ADME, organism-based; details: in vivo, 1 h
[38] = test system: Muscle tissue; assay: Biodistribution in ddY mouse muscle at 4.8 MBq/0.1 mL after 15 mins by gamma counting; format: ADME, organism-based; details: in vivo, 0.25 h
[39] = test system: Brain; assay: Biodistribution in ddY mouse brain at 4.8 MBq/0.1 mL after 5 mins by gamma counting; format: ADME, organism-based; details: in vivo
[40] = species: Mus musculus; assay: Biodistribution in ddY mouse small intestine at 4.8 MBq/0.1 mL after 60 mins by gamma counting; format: ADME, organism-based; details: in vivo, 1 h
[41] = test system: Blood; assay: Biodistribution in ddY mouse blood at 4.8 MBq/0.1 mL after 30 mins by gamma counting; format: ADME, organism-based; details: in vivo, 0.5 h
[42] = test system: Lung; assay: Biodistribution in ddY mouse lung at 4.8 MBq/0.1 mL after 1 min by gamma counting; format: ADME, organism-based; details: in vivo
[43] = test system: Spleen; assay: Biodistribution in ddY mouse spleen at 4.8 MBq/0.1 mL after 30 mins by gamma counting; format: ADME, organism-based; details: in vivo, 0.5 h
[44] = species: Mus musculus; assay: Biodistribution in ddY mouse testis at 4.8 MBq/0.1 mL after 90 mins by gamma counting; format: ADME, organism-based; details: in vivo, 1.5 h
[45] = test system: Lung; assay: Biodistribution in ddY mouse lung at 4.8 MBq/0.1 mL after 5 mins by gamma counting; format: ADME, organism-based; details: in vivo
[46] = Metabolic stability in Sprague-Dawley plasma assessed as unchanged drug level at 37 MBq/0.1 mL, iv after 30 mins; format: ADME, organism-based; details: rat, read-out: Stability
[47] = test system: Kidney; assay: Biodistribution in ddY mouse kidney at 4.8 MBq/0.1 mL after 5 mins by gamma counting; format: ADME, organism-based; details: in vivo
[48] = species: Mus musculus; assay: Biodistribution in ddY mouse large intestine at 4.8 MBq/0.1 mL after 1 min by gamma counting; format: ADME, organism-based; details: in vivo
[49] = test system: Pancreas; assay: Biodistribution in ddY mouse pancreas at 4.8 MBq/0.1 mL after 90 mins by gamma countingeas; format: ADME, organism-based; details: in vivo, 1.5 h

Which Drug uptake [1] does the source give for `CC(C)Nc1cc(-c2csc(N(C)C(=O)c3ccc([14CH3])cc3)n2)ncn1` here?
Its Drug uptake is “Active”.

What about the Drug uptake [2] of the same molecule?
Its Drug uptake is “Active”.

What about the Drug uptake [3] of the same molecule?
The Drug uptake was 0.29 % ID/g.

And the Drug uptake [4]?
Its Drug uptake is 1.59 % ID/g.

What about the Drug uptake [5] of the same molecule?
Its Drug uptake is 0.3 % ID/g.

What about the Drug uptake [6] of the same molecule?
Its Drug uptake is 4.93 % ID/g.

What about the Ratio [7] of the same molecule?
The Ratio was 1.8.

What about the remaining at 5 min [8] of the same molecule?
The remaining at 5 min was 70.2%.

What about the Drug uptake [9] of the same molecule?
Its Drug uptake is 0.02 % ID/g.

What about the Drug uptake [10] of the same molecule?
Its Drug uptake is 2.59 % ID/g.

And the Drug uptake [11]?
The Drug uptake was 0.56 % ID/g.

And the Ratio [12]?
Its Ratio is 2.

And the remaining at 0.25 h [13]?
The remaining at 0.25 h was 43.1%.

What about the Drug uptake [14] of the same molecule?
The Drug uptake was “Not Active”.

What about the Drug uptake [15] of the same molecule?
The Drug uptake was 0.31 % ID/g.

And the remaining at 0.25 h [16]?
The remaining at 0.25 h was 95.2%.

What about the Drug uptake [17] of the same molecule?
The Drug uptake was 41.52 % ID/g.

And the Drug uptake [18]?
The Drug uptake was 1.32 % ID/g.

And the Drug uptake [19]?
Its Drug uptake is 4.48 % ID/g.

What about the Drug uptake [20] of the same molecule?
The Drug uptake was 1.98 % ID/g.

And the Ratio [21]?
Its Ratio is 1.

And the Drug uptake [22]?
Its Drug uptake is 0.37 % ID/g.

What about the Drug uptake [23] of the same molecule?
The Drug uptake was 0.96 % ID/g.

What about the Drug uptake [24] of the same molecule?
The Drug uptake was 1.27 % ID/g.

And the Ratio [25]?
The Ratio was 2.6.

What about the Ratio [26] of the same molecule?
The Ratio was 1.5.

What about the SUV [27] of the same molecule?
Its SUV is 0.8.

And the Drug uptake [28]?
The Drug uptake was 0.62 % ID/g.

And the Drug uptake [29]?
The Drug uptake was 0.17 % ID/g.

What about the remaining at 1 h [30] of the same molecule?
Its remaining at 1 h is 33.9%.

And the Drug uptake [31]?
The Drug uptake was 0.09 % ID/g.

And the Drug uptake [32]?
Its Drug uptake is 0.22 % ID/g.

And the Drug uptake [33]?
Its Drug uptake is 1.28 % ID/g.

And the Drug uptake [34]?
The Drug uptake was 0.13 % ID/g.

What about the Drug uptake [35] of the same molecule?
Its Drug uptake is 0.22 % ID/g.

What about the SUV [36] of the same molecule?
Its SUV is 1.2.

And the Drug uptake [37]?
The Drug uptake was 0.2 % ID/g.

What about the Drug uptake [38] of the same molecule?
The Drug uptake was 0.23 % ID/g.

And the Drug uptake [39]?
The Drug uptake was 2.58 % ID/g.

What about the Drug uptake [40] of the same molecule?
The Drug uptake was 17.46 % ID/g.

And the Drug uptake [41]?
Its Drug uptake is 0.14 % ID/g.

And the Drug uptake [42]?
Its Drug uptake is 5.48 % ID/g.

And the Drug uptake [43]?
Its Drug uptake is 0.07 % ID/g.

What about the Drug uptake [44] of the same molecule?
The Drug uptake was 0.14 % ID/g.

And the Drug uptake [45]?
Its Drug uptake is 2.56 % ID/g.

What about the remaining at 0.5 h [46] of the same molecule?
Its remaining at 0.5 h is 39%.

What about the Drug uptake [47] of the same molecule?
The Drug uptake was 4.41 % ID/g.

What about the Drug uptake [48] of the same molecule?
The Drug uptake was 1.28 % ID/g.

What about the Drug uptake [49] of the same molecule?
The Drug uptake was 0.04 % ID/g.
